Reference: patent US12371421B2, “Solid forms of a PARP7 inhibitor” (Ribon Therapeutics, Inc., priority 2019, dated 2025)

Tests used:
SNU-840 = experiment: Cancer cell growth inhibition (CellTiter-Glo); type: cell-based; conditions: SNU-840, malignant ovarian Brenner tumor; 144 hours
Description: (§1) Cells were plated into 384-well plates at a pre-specified density in fetal bovine serum-containing media. Cells were treated with compound or vehicle (DMSO) 24 hrs later, and a day zero plate was collected for analysis. Test compound plates were incubated continuously for 144 hours before cells and cell growth was assessed using a luminescent cell viability assay (CellTiter-Glo, Promega). The GI50 was determined by correcting for the cell count at time zero (time of treatment) and plotting data as percent growth relative to vehicle-treated cells.

A101D = experiment: Cancer cell growth inhibition (CellTiter-Glo); type: cell-based; conditions: Homo sapiens, melanoma, 144 hours
Description: as §1

SK-LU-1 = experiment: Cancer cell growth inhibition (CellTiter-Glo); type: cell-based; conditions: Homo sapiens; SK-LU-1, lung adenocarcinoma; 144 hours
Description: as §1

AGS = experiment: Cancer cell growth inhibition (CellTiter-Glo); type: cell-based; conditions: Homo sapiens, gastric adenocarcinoma, 144 hours
Description: as §1

NCI-H647 = experiment: Cancer cell growth inhibition (CellTiter-Glo); type: cell-based; conditions: Homo sapiens; NCI-H647, lung adenosquamous carcinoma; 144 hours
Description: as §1

HT-1080 = experiment: Cancer cell growth inhibition (CellTiter-Glo); type: cell-based; conditions: Homo sapiens; HT-1080, fibrosarcoma; 144 hours
Description: as §1

LN-18 = experiment: Cancer cell growth inhibition (CellTiter-Glo); type: cell-based; conditions: Homo sapiens; LN-18, glioblastoma; 144 hours
Description: as §1

NCI-H2444 = experiment: Cancer cell growth inhibition (CellTiter-Glo); type: cell-based; conditions: Homo sapiens; NCI-H2444, non-small cell lung carcinoma; 144 hours
Description: as §1

YD-10B = experiment: Cancer cell growth inhibition (CellTiter-Glo); type: cell-based; conditions: tongue squamous cell carcinoma, 144 hours
Description: as §1

HPAF-II = experiment: Cancer cell growth inhibition (CellTiter-Glo); type: cell-based; conditions: Homo sapiens, pancreatic adenocarcinoma, 144 hours
Description: as §1

ACC-MESO-1 = experiment: Cancer cell growth inhibition (CellTiter-Glo); type: cell-based; conditions: ACC-MESO-1, mesothelioma; 144 hours
Description: as §1

Caki-1 = experiment: Cancer cell growth inhibition (CellTiter-Glo); type: cell-based; conditions: Homo sapiens; Caki-1, clear cell renal cell carcinoma; 144 hours
Description: as §1

GCT = experiment: Cancer cell growth inhibition (CellTiter-Glo); type: cell-based; conditions: Homo sapiens, undifferentiated pleiomorphic sarcoma, 144 hours
Description: as §1

H4 = experiment: Cancer cell growth inhibition (CellTiter-Glo); type: cell-based; conditions: H4, neuroglioma; 144 hours
Description: as §1

KMBC-2 = experiment: Cancer cell growth inhibition (CellTiter-Glo); type: cell-based; conditions: KMBC-2, bladder carcinoma; 144 hours
Description: as §1

TYK-nu = experiment: Cancer cell growth inhibition (CellTiter-Glo); type: cell-based; conditions: high grade ovarian serious adenocarcinoma, 144 hours
Description: as §1

IA-LM = experiment: Cancer cell growth inhibition (CellTiter-Glo); type: cell-based; conditions: large cell lung carcinoma, 144 hours
Description: as §1

TUHR10TKB = experiment: Cancer cell growth inhibition (CellTiter-Glo); type: cell-based; conditions: renal cell carcinoma, 144 hours
Description: as §1

MDA-MB-468 = experiment: Cancer cell growth inhibition (CellTiter-Glo); type: cell-based; conditions: Homo sapiens; MDA-MB-468, breast adenocarcinoma; 144 hours
Description: as §1

SW900 = experiment: Cancer cell growth inhibition (CellTiter-Glo); type: cell-based; conditions: Homo sapiens; SW900, squamous cell lung carcinoma; 144 hours
Description: as §1

MSTO-211H = experiment: Cancer cell growth inhibition (CellTiter-Glo); type: cell-based; conditions: Homo sapiens, biphasic mesothelioma, 144 hours
Description: as §1

CAL-27 = experiment: Cancer cell growth inhibition (CellTiter-Glo); type: cell-based; conditions: Homo sapiens; CAL-27, tongue squamous cell carcinoma; 144 hours
Description: as §1

NCI-H1373 = experiment: Cancer cell growth inhibition (CellTiter-Glo); type: cell-based; conditions: Homo sapiens; NCI-H1373, lung adenocarcinoma; 144 hours
Description: as §1

SF126 = experiment: Cancer cell growth inhibition (CellTiter-Glo); type: cell-based; conditions: Homo sapiens, SF-126; SF126, glioblastoma multiforme; 144 hours
Description: as §1

MCAS = experiment: Cancer cell growth inhibition (CellTiter-Glo); type: cell-based; conditions: ovarian mucinous cystadenocarcinoma, 144 hours
Description: as §1

NCI-H441 = experiment: Cancer cell growth inhibition (CellTiter-Glo); type: cell-based; conditions: Homo sapiens; NCI-H441, papillary adenocarcinoma of the lung; 144 hours
Description: as §1

COR-L105 = experiment: Cancer cell growth inhibition (CellTiter-Glo); type: cell-based; conditions: Homo sapiens; COR-L105, lung adenocarcinoma; 144 hours
Description: as §1

NCI-H2347 = experiment: Cancer cell growth inhibition (CellTiter-Glo); type: cell-based; conditions: Homo sapiens; NCI-H2347, lung adenocarcinoma; 144 hours
Description: as §1

[1] = test system: NCI-H1373 lung cancer xenograft; experiment: Tumor growth in human NCI-H1373 lung cancer xenograft; type: in vivo, SCID mice
Description: For the NCI-H1373 study, SCID mice were inoculated subcutaneously in the right flank with NCI-H1373 cells for tumor development. After 5 days of tumor growth, mice with 89-148 mm^3 tumors were randomized into treatment groups with mean tumor volumes of 121 mm^3. […] Tumor volumes were determined by manual calipers every 2-3 days. Mean tumor volume and SEM are plotted. QD: once a day; PO: per oral administration. Statistical significance is calculated using two-way ANOVA followed by Bonferroni post-tests in which the treatment groups were compared to vehicle control (****P<0.0001).

[2] = test system: CT26 colon cancer syngeneic model; experiment: Tumor growth in murine CT26 colon cancer syngeneic model; type: in vivo, BALB/c mice; conditions: BID 125-500 mg/kg or QD 500 mg/kg for 21 days; P<0.0001 vs vehicle (Day 16)
Description: For the CT26 study, BALB/c mice were inoculated subcutaneously in the right flank with CT26 cells for tumor development. After 5 days of cell inoculation, mice with 36-79 mm^3 tumors were randomized into treatment groups with mean tumor volumes of 54 mm^3. […] Tumor volumes were determined by manual calipers every 2-3 days. Mean tumor volume and SEM are plotted. BID: twice a day; PO: per oral administration; QD: once a day; SC: per subcutaneous administration. […] Statistical analysis for tumor growth inhibition (TGI) was performed when at least 8 of the 10 mice were remaining in the vehicle group (Day 16). Statistical significance is calculated using two-way ANOVA followed by Bonferroni post-tests in which the treatment groups were compared to vehicle control (**** P<0.0001).

GI50 (SNU-840): ≥ 1 µM
GI50 (A101D): ≥ 1 µM
GI50 (SK-LU-1): ≥ 1 µM
GI50 (AGS): ≥ 1 µM
GI50 (NCI-H647): < 0.1 µM
GI50 (HT-1080): ≥ 1 µM
GI50 (LN-18): ≥ 1 µM
GI50 (NCI-H2444): ≥ 1 µM
GI50 (YD-10B): ≥ 1 µM
GI50 (HPAF-II): ≥ 1 µM
GI50 (ACC-MESO-1): ≥ 1 µM
GI50 (Caki-1): < 0.1 µM
GI50 (GCT): < 0.1 µM
GI50 (H4): ≥ 1 µM
GI50 (KMBC-2): ≥ 1 µM
GI50 (TYK-nu): < 0.1 µM
GI50 (IA-LM): < 0.1 µM
GI50 (TUHR10TKB): < 0.1 µM
GI50 (MDA-MB-468): ≥ 1 µM
GI50 (SW900): 0.1 to 1 µM
GI50 (MSTO-211H): ≥ 1 µM
GI50 (CAL-27): ≥ 1 µM
GI50 (NCI-H1373): < 0.1 µM
GI50 (SF126): ≥ 1 µM
GI50 (MCAS): ≥ 1 µM
GI50 (NCI-H441): ≥ 1 µM
GI50 (COR-L105): 0.1 to 1 µM
GI50 (NCI-H2347): < 0.1 µM
SMILES: C[C@@H](COCCC(=O)N1CCN(c2ncc(C(F)(F)F)cn2)CC1)Nc1cn[nH]c(=O)c1C(F)(F)F [Compound 1, 5-[[(2S)-1-(3-oxo-3-[4-[5-(trifluoromethyl)pyrimidin-2-yl]piperazin-1-yl]propoxy)propan-2-yl]amino]-4-(trifluoromethyl)-2,3-dihydropyridazin-3-one]
Tumor growth (tumor volume) vs vehicle ([1]; 62.5, 125, 250, 500 mg/kg QD PO for 28 days, P<0.0001 vs vehicle): significantly reduces tumor growth
Tumor regression ([1]; 62.5 to 500 mg/kg once a day for 28 days, oral gavage, all dose levels): complete tumor regression
Tumor growth (tumor volume) vs vehicle [2]: significantly reduces tumor growth
